Laboratory results as given in paper PMC9995496, “A screen for MeCP2-TBL1 interaction inhibitors using a luminescence-based assay” (Scientific Reports, 2023).
Structures can show the parent of a compound that is named as a salt.

The molecules below were run on PRKACA-PRKAR2A interaction (SmBiT-PRKACA / LgBiT-PRKAR2A), protein kinase A. Conditions: 0.5 h, 20 µM; inhibitor.
Parameters: NanoLuc complementation counter-screen in cell extract, PRKACA with PRKAR2A, loss of luminescence, detects NanoLuc interference

SMILES | Inh (PKA)
Cc1ccccc1CN1C(=O)C2=C(CCN(Cc3ccccc3)C2)N2CCN=C12 [UM0142096:01, TIC10] | 4.346
CN(Cc1cccc(-c2ccncc2)c1)C(=O)Oc1ccc(-c2ccc(C(N)=O)cc2)cc1 [UM0142148:01, WWL 70] | 11.8%

Same assay, conditions: counter-screen for NanoLuc interference, 0.5 h, 20 µM, inhibitor, Inh (PKA)

Inh (PKA) | SMILES
0.5645% | O=C(/C=C/c1cccnc1)NCCCCC1CCN(C(=O)c2ccccc2)CC1 [UM0142102:01, FK 866 hydrochloride]
8.491% | CNCc1ccc(-c2[nH]c3cc(F)cc4c3c2CCNC4=O)cc1 [UM0142149:01, Rucaparib (free base)]
9.484% | CCOC(=O)[C@H](C)C[C@@H](Cc1ccc(-c2ccccc2)cc1)NC(=O)CCC(=O)O [UM0142165:01, AHU-377(Sacubitril)]

Same assay, conditions: counter-screen for NanoLuc interference; 0.5 h, 20 µM; inhibitor

Inh (PKA) | SMILES
19.6% | Cc1[nH]nc2ccc(-c3cncc(OC[C@@H](N)Cc4ccccc4)c3)cc12 [UM0142094:01, A-674563]
38.25% | NC1(Cc2ccc(Cl)cc2)CCN(c2ncnc3[nH]ccc23)CC1 [UM0142095:01, CCT128930]
51% | COc1cc(N2CCC(N)CC2)ccc1Nc1ncc(Cl)c(-c2c[nH]c3ccccc23)n1 [UM0142097:01, AZD-3463]
0.8611% | CN1CCN(c2ccc(Nc3cc(-c4cccc(-n5ccc6cc(C7CC7)cc(F)c6c5=O)c4CO)cn(C)c3=O)nc2)CC1 [UM0142104:01, RN486]
17.03% | O=C(NCc1ccc(Oc2ccccc2)cc1)c1nc(-c2cc(Br)c(O)c(Br)c2)no1 [UM0142105:01, IOWH-032]
4.692% | CN1CC[C@H](c2c(O)cc(O)c3c(=O)cc(-c4ccccc4Cl)oc23)[C@H](O)C1 [UM0142107:01, Flavopiridol hydrochloride]
5.257% | CN(C)C(=O)c1cc2cnc(Nc3ccc(N4CCNCC4)cn3)nc2n1C1CCCC1 [UM0142108:01, LEE011]
15.15% | Cc1nn(-c2ccccc2)c(C)c1/C=N/N1CCN(Cc2ccccc2)CC1 [UM0142111:01, SANT-1]
18.6% | CC[C@@H](N)CNc1ccnc(-c2cc(-c3cnn(C)c3)ccc2O)n1 [UM0142114:01, CRT 0066101]
8.434% | O=c1ncn2nc(Sc3ccc(F)cc3F)ccc2c1-c1c(Cl)cccc1Cl [UM0142117:01, VX-745]
63.93% | CN(c1ccccc1CNc1nc(Nc2ccc3c(c2)CC(=O)N3)ncc1C(F)(F)F)S(C)(=O)=O [UM0142118:01, PF-431396]
9.452% | C=CC(=O)Nc1ccc(CN2C(=O)N(c3cc(OC)cc(OC)c3)Cc3cnc(Nc4ccc(N5CCN(C)CC5)cc4)nc32)cc1 [UM0142120:01, FIIN-2]
48.23% | C=CC(=O)Nc1cccc(C)c1Nc1ncc2cc(-c3c(Cl)c(OC)cc(OC)c3Cl)ccc2n1 [UM0142122:01, BLU9931]
74.86% | CN(C)C/C=C/C(=O)Nc1cccc(C(=O)Nc2cccc(Nc3ncc(Cl)c(-c4c[nH]c5ccccc45)n3)c2)c1 [UM0142128:01, THZ2]
3.385% | CN1CCN(C(=O)c2ccc3cc(CCNc4ncnc5ccc(C#N)cc45)ccc3c2)CC1 [UM0142129:01, Senexin B]
6.005% | CN1C(=O)c2sccc2N(C)c2nc(Nc3ccc(S(N)(=O)=O)cc3)ncc21 [UM0142130:01, XMU-MP-1]
20.59% | Cc1c(-c2c(-c3ccc(F)o3)sc3ncnc(O[C@H](Cc4ccccc4OCc4ccnn4CC(F)(F)F)C(=O)O)c23)ccc(OCCN2CCN(C)CC2)c1Cl [UM0142131:01, S63845]
21.99% | O=C(NCC1(c2nc(-c3ccccc3)cs2)CCOCC1)c1cccc(-c2noc(C(F)(F)F)n2)c1 [UM0142136:01, TMP269]
20.15% | O=C(c1cccc(Cl)c1F)N1CCN(Cc2cccc(Nc3nccs3)n2)CC1 [UM0142137:01, MK-8745]
37.99% | CSc1cccc(Nc2ncc3cc(-c4c(Cl)cccc4Cl)c(=O)n(C)c3n2)c1 [UM0142139:01, PD173955]
33.46% | C=CC(=O)Nc1cccc(Oc2nc(Nc3ccc(N4CCN(C)CC4)cc3)ncc2Cl)c1 [UM0142142:01, WZ3146]
81.51% | CN(C)C/C=C/C(=O)Nc1ccc(C(=O)Nc2cccc(Nc3ncc(Cl)c(-c4c[nH]c5ccccc45)n3)c2)cc1 [UM0142143:01, THZ1]
37.05% | CN1CCC(Nc2nc(Nc3ccc(Oc4ccccc4)cc3)c3c(=O)[nH]cc(Br)c3n2)CC1 [UM0142146:01, G-749]
10.88% | Cc1nc(Nc2cnn(C3CCNCC3)c2)nc2c1N(C)C(=O)c1cc3ccccc3cc1N2C [UM0142147:01, HTH-01-015]
0.5125% | Cc1c(-c2ccnn2C)cc(C(=O)NCc2ccc(S(C)(=O)=O)cn2)c(=O)n1-c1cccc(C(F)(F)F)c1 [UM0142161:01, Alvelestat]
18.1% | O=C(O)c1ccc(-c2c[nH]c3ncc(-c4ccccc4)cc23)cc1C1CCCC1 [UM0142163:01, GSK 650394]
6.598% | C=CC(=O)Nc1cc(Nc2nccc(-c3cn(C)c4ccccc34)n2)c(OC)cc1N(C)CCN(C)C [UM0142170:01, AZD-9291]
4.784% | Cc1cc(C(N)=O)ccc1-n1c(CCC(=O)O)ccc1-c1ccc(-n2ccnc2)cc1 [UM0142172:01, N6022]
5.354% | Cc1cc(-c2nc(-c3ccc(OC(F)(F)F)cc3)no2)nn1Cc1ccnc(N2CCN(C3CC3)CC2)c1 [UM0142175:01, BAY 87-2243]
16.18% | CCn1c(=O)c(-c2ccc(-c3cncs3)cc2Cl)cc2cnc(Nc3ccc(N4CCN(C)CC4)cc3)nc21 [UM0142182:01, FRAX597]

Continued, molecule first:

SMILES | Inh (PKA)
N#Cc1ccc(OC2CCC(NC(=O)CCSc3nc4ccccc4c(=O)[nH]3)CC2)cc1 (stereo not shown) [UM0142092:01, Tankyrase Inhibitors (TNKS) 49] | 5.667%
C[C@]12CC[C@H](O)CC1=CC[C@@H]1[C@@H]2CC[C@]2(C)C(n3cnc4ccccc43)=CC[C@@H]12 [UM0142098:01, TOK-001] | 15.03%
O=C(NC(NC(=S)Nc1ccc(F)c([N+](=O)[O-])c1)C(Cl)(Cl)Cl)C(c1ccccc1)c1ccccc1 (stereo not shown) [UM0142099:01, CGK733] | 35.68%
Cc1cnc(NC(=O)Nc2cc(Br)c(C)cc2OC[C@@H]2CNCCO2)cn1 [UM0142106:01, LY2603618] | 6.637%
CCCCCOC(=O)Nc1nc(=O)n([C@@H]2O[C@H](C)[C@@H](O)[C@H]2O)cc1F [UM0142109:01, Capecitabine] | 3.507%
N#C[C@@H]1C[C@@H]2C[C@@H]2N1C(=O)[C@@H](N)C12CC3CC(CC(O)(C3)C1)C2 [UM0142110:01, Saxagliptin] | 1.3%
CC(C)[C@H]1C(=O)N[C@@H](CCCNC(=N)N)C(=O)NCC(=O)N[C@@H](CC(=O)O)C(=O)N[C@H](Cc2ccccc2)C(=O)N1C [UM0142112:01, Cilengitide] | 0.5722%
O=C1NCCCc2c1oc1ccc(O)cc21 [UM0142113:01, CID 755673] | 2.979%
FC(F)(F)Oc1ccc2nc(-c3ccc(OCCOCCOc4ccc(-c5nc6ccc(OC(F)(F)F)cc6[nH]5)nc4)cn3)[nH]c2c1 [UM0142119:01, AI-10-49] | 39.19%
CC(C)(C)C(O)/C=C/c1ccc2c(c1)OCO2 (stereo not shown) [UM0142121:01, Stiripentol] | 12.44%
CCCC[S+]([O-])c1sc2nc(-c3cccs3)cc(-c3ccccc3)c2c1N (stereo not shown) [UM0142124:01, SW033291] | 33.39%
CC(C)(CCCCCC(O)CCCCCC(C)(C)C(=O)O)C(=O)O [UM0142125:01, ETC-1002] | 5.399%
CNC(=O)c1ccccc1Oc1nc(Nc2cc(OC)c(OC)c(OC)c2)ncc1Br [UM0142126:01, SBI-0206965] | 34.96%
CNc1ncc2cc(-c3cc(NC(=O)NCCC(C)(C)C)c(F)cc3C)c(C)nc2n1 [UM0142127:01, LY3009120] | 13.32%
COc1ccc(S(=O)(=O)N2CCC(N3CCC(C)CC3)CC2)cc1 [UM0142132:01, TASIN-1] | 4.343%
Cn1c2ccccc2c2c3c(c4c5ccccc5n(CCC#N)c4c21)C(=O)NC3=O [UM0142134:01, ICP 103] | 13.04%
Nc1cc(F)ccc1NC(=O)/C=C/c1cnn(C/C=C/c2ccccc2)c1 [UM0142135:01, RGFP966] | 7.983%
CCCCCCCCCCCCCCCCn1cc[n+](Cc2ccccc2)c1C [UM0142140:01, NH125] | 8.181%
C[C@@H]1COCCN1c1cc(=O)n2c(n1)N(Cc1cncc(Cl)c1)[C@H](C(F)(F)F)CC2 [UM0142144:01, SAR405] | 7.192%
O=C1N=C(NCc2cccs2)S/C1=C\c1ccc2ncccc2c1 [UM0142145:01, Ro 3306] | 23.14%
COC(=O)C[C@H](NC(=O)[C@H](C)NC(=O)[C@@H](NC(=O)[C@H](Cc1ccc(O)cc1)NC(=O)OCc1ccccc1)C(C)C)C(=O)CF [UM0142151:01, Z-YVAD-FMK] | 2.926%
Cc1nn(C)c2c1C(c1ccc(C(F)(F)F)cc1)C(C#N)=C(N)O2 (stereo not shown) [UM0142152:01, BQU57] | 14.94%
O=CC[C@@H](O)[C@H](O)[C@H](O)CO [UM0142158:01, 2-Deoxy-D-glucose] | 1.529%
COc1ccc(-c2ccccc2)cc1NS(=O)(=O)c1cc(Cl)cc(Cl)c1O [UM0142166:01, BMS-303141] | 65.56%
COc1cccc(OCCCN)c1-c1cc(Nc2cnc(C#N)cn2)n[nH]1 [UM0142169:01, LY2606368] | 14.04%
CC(C)Nc1cc(-c2c[nH]c(C(=O)N[C@H](CO)c3cccc(Cl)c3)c2)c(Cl)cn1 [UM0142171:01, VRT752271] | 17.24%
COc1cc(NC(=O)Nc2cccc(CNC(=O)O[C@H]3CCOC3)c2)ccc1-c1cnco1 [UM0142173:01, Merimepodib] | 28.05%
COc1cc2c(NC3CCN(CC4CCCCC4)CC3)nc(N3CCCN(C(C)C)CC3)nc2cc1OCCCN1CCCCC1 [UM0142178:01, UNC 0631] | 0.9058%
O=C(NCc1ccncc1)C12CC3CC(C1)CC(c1ccc(Cl)cc1)(C3)C2 [UM0142183:01, ABC294640] | 8.98%
